According to patent publication US10106565B2 (priority 2008, dated 2018):

What was measured:
human monocytes = assay: Flow cytometry phenotype of dendrimer-activated monocytes (surface markers); type: cell-based; details: 20 μM, compared with alt- and class-monocytes
Experimental: For the functional experiments, freshly purified monocytes are cultured in 6-well plates. The cells are stimulated for 24 hours (immunophenotyping by flow cytometry analyses, MLR) or 96 hours (CD206 detection) with different stimuli or remain untreated (control). Dendrimer-activated monocytes (da-monocytes) are obtained with 20 μM of the dendrimer Gc1, alternatively-activated monocytes (alt-monocytes) with 10 U/mL recombinant human IL4 (Peprotech). The classical activation of monocytes is obtained by priming the cells over night (18 hours) with 100 U/mL of human recombinant IFN-γ (R&D Systems) and, after a washing step in PBS, by stimulation with 10 ng/mL LPS from E. coli 011/B4 strain (InvivoGen) for the remaining 6 hours or […].
Flow cytometry is performed on a LSR-II cytometer (BD Biosciences). The data are analyzed with FACSDiva (BD Biosciences) or WinMDI softwares. The expression of surface markers is performed using mouse anti-human fluorochrome-conjugated mAbs specific for MHC class II-FITC (clone Tü36), CD86-PE (clone 2331), MHC class I-PE-Cy5 (clone G46-2.6) and CD13-PE (clone WM15) from BD Biosciences and specific for CD64-FITC (clone 22) and CD206-PE (clone 3.29B1.10) from Beckman-Coulter. Appropriate isotype-matched antibodies are used as negative control.

CD4+ T cells = assay: Intracellular detection of IL10 in CD4+ T cells after MLR; type: cell-based, human; details: PBL:monocytes 4:1, 5 hours re-stimulation; compared to MLR with class-monocytes
Experimental: Six days following the primary stimulation with one of the differently activated monocytes at a ratio of PBL:monocytes of 4:1, cells were restimulated with 10000 anti-CD 3/anti-CD28 beads for 5 hours (according to the technical description by J. P. Edwards et al., (2006) J Leukoc Biol 80, 1298-1307) and with 10 μg/mL Brefeldin A (Sigma-Aldrich) to inhibit cytokine secretion. Cells are then harvested, washed with PBS and incubated 15 minutes at 4° C. with mouse mAb anti-human CD4-PE (clone 13B8.2, Beckman-Coulter) in PBS with 5% FCS. Cells washed twice, are then fixed by 2% paraformaldehyde in PBS and permeabilized with 1% saponin in PBS. Intracellular staining is performed with AlloPhycoCyanin-conjugated rat anti-human IL10 (clone JES3-19F1, BD Bioscience) for 30 minutes at 4° C. in PBS with 1% saponin and analyzed by flow cytometry. Each condition is done in triplicate and results are expressed as the mean±SD. Intracellular IL10 mean fluorescence intensity (mfi) means across the differently activated monocytes are compared by one-way analysis of variance, the comparisons between CD4^+/CFSE^− and CD4^+/CFSE^+ cells are done with Student's t-test using Sigma Stat software (Systat Software).

SMILES: CN(/N=C/c1ccc(OP2(Oc3ccc(/C=N/N(C)P(=S)(Oc4ccc(CCN(CP(=O)(O)O)CP(=O)(O)O)cc4)Oc4ccc(CCN(CP(=O)(O)O)CP(=O)(O)O)cc4)cc3)=NP(Oc3ccc(/C=N/N(C)P(=S)(Oc4ccc(CCN(CP(=O)(O)O)CP(=O)(O)O)cc4)Oc4ccc(CCN(CP(=O)(O)O)CP(=O)(O)O)cc4)cc3)(Oc3ccc(/C=N/N(C)P(=S)(Oc4ccc(CCN(CP(=O)(O)O)CP(=O)(O)O)cc4)Oc4ccc(CCN(CP(=O)(O)O)CP(=O)(O)O)cc4)cc3)=NP(Oc3ccc(/C=N/N(C)P(=S)(Oc4ccc(CCN(CP(=O)(O)O)CP(=O)(O)O)cc4)Oc4ccc(CCN(CP(=O)(O)O)CP(=O)(O)O)cc4)cc3)(c3ccc(/C=N/N(C)P(=S)(Oc4ccc(CCN(CP(=O)(O)O)CP(=O)(O)O)cc4)Oc4ccc(CCN(CP(=O)(O)O)CP(=O)(O)O)cc4)cc3)=N2)cc1)P(=S)(Oc1ccc(CCN(CP(=O)(O)O)CP(=O)(O)O)cc1)Oc1ccc(CCN(CP(=O)(O)O)CP(=O)(O)O)cc1 (centres unmarked) [Gc1]
- cell surface expression of CD13 (aminopeptidase N) (human monocytes; 24 hours): Class-monocytes express a higher level of CD13 than alt- and da-monocytes
- cell surface expression of CD64 (FcγRI) (human monocytes; 24 hours): overexpressed in class-monocytes, but not in alt- or da-monocytes
- expression of HLA-DR, HLA-A,B,C and CD86 (antigen-presenting capacity) (human monocytes; 24 hours): poor APC
- cell surface expression of mannose receptor MRC1 (CD206) (human monocytes; 96 hours): strongly enhanced
- production of IL10 by divided CD4+ T cells in MLR with da-monocytes (CD4+ T cells): significantly enhanced
